The test system of one test is C. krusei CK1. Briefly: Microbroth dilution MIC80. The class given is cell-based, Candida krusei. The conditions noted are these: Pichia kudriavzevii, CK1. Put shortly: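 CLSI microbroth dilution in RPMI1640, inoculum 1 × 10^3 CFU/mL, compounds 0.0156–64 μg/mL final, 24 h at 35 °C. MIC read as visible growth inhibition versus control, in duplicate.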
(In broth dilution the organism is exposed to a series of concentrations in liquid medium.)

A further test has as its system C. albicans SC5314 cells. Put plainly: Mitochondrial membrane potential by Rh123. The class given is cell-based, Candida albicans. The conditions noted are these: 0.125-1 μg/mL, 30°C, 6 h. As for the experimental part: the fluorescent complex […] (CTF) is commonly used to indicate the intensity of microbial respiration. C. albicans SC5314 treated with 19ak was stained with 1 mM CTC for 30 min, followed by flow cytometry analysis of respiratory activity based on fluorescence intensity. Images of cells were obtained using a fluorescence microscope (IX71, Olympus, Tokyo, Japan). The Cell Counting Kit-8 (CCK-8) assay is used to measure the dehydrogenase activity in the mitochondria of C. albicans or mammalian cells. C. albicans SC5314 (5 × 10^6 cells/mL in RPMI1640 medium) were treated with different concentrations of 19ak in 96-well plates at 30°C for 12 h or 48 h. […] After an additional 2 h of incubation, OD450 in each well was detected with a microplate reader. […]
Mitochondrial isolation and detection of mitochondrial respiratory chain complex activity. […] The activities of mitochondrial respiratory chain complexes I-IV were determined by using the Micro Mitochondrial Respiratory Chain Complex Activity Assay Kit (Solarbio, Beijing, China). The concentration of protein was determined using the BCA Protein Assay Kit (Beyotime, Haimen, China).
Mitochondrial complex activity was expressed as nmol/min/mg protein. […]
Measurement of intracellular ATP production. […] Cellular protein concentrations were determined using a BCA Protein Assay Kit (Beyotime, Haimen, China). […]

The test system of test [1] is human renal epithelial cell line HK2. Put plainly: Cytotoxicity testing (MTT). The conditions noted are these: ratio of IC50 against HK2 to MIC80 against C. albicans SC5314. The class given is cell-based.

The values below come from publication PMC9241695, “Selective Metal Chelation by a Thiosemicarbazone Derivative Interferes with Mitochondrial Respiration and Ribosome Biogenesis in Candida albicans” (Microbiology Spectrum, 2022).

Each structure is given as a SMILES string. Converted amounts (≈) assume the structure as drawn.

Regarding `C/C(=N\NC(=S)N(C)C)c1ccccn1` [Compound 19ak], the MIC80 – broadly, the lowest concentration that inhibits either 80% of growth or 80% of the strains tested, depending on the study – against C. krusei CK1 is 0.125 µg/mL (≈ 0.562 µM). Moreover, in the test on C. albicans SC5314 cells, the “Mitochondrial membrane potential (mtΔψ), Rh123” value is listed as “decrease in mtΔψ”. For the same compound, in test [1], the “Selectivity index HK2” value is given as 214.32.
